Test results from patent EP1345618B1, “CHLORZOXAZONE FOR THE TREATMENT OF PSORIASIS” (Switch Biotech Aktiengesellschaft, priority 2000, dated 2002).
“Also recorded” adds a separate entry of the source. Where two headings read alike, the source gives them in different places.

How the values were obtained:
Format in all cases: cell-based
[1] = tested on: HaCaT-Keratinozyten; assay: Patch-clamp recording of the membrane potential (Vm) of HaCaT keratinocytes; conditions: for Depolarisierung auf ein Plateau während der Behandlung mit ATP: other K+ channel blockers, compared with ChTx and Clotrimazol
Description: Um einen Ionenkanal zu identifizieren, der wesentlich bei der Signaltransduktion wundheilungsspezifischer Signale beteiligt ist, wurden HaCaT-Zellen elektrophysiologisch untersucht. Die Anzucht der HaCaT-Keratinozyten erfolgte in DEM mit 10% FRS (Gibco BRL), den Antibiotika (Penicillin/Streptomycin 100 U/ml) zugesetzt worden war. Die Ca^2+-Endkonzentration betrug 1,8 mM. Die Zellen wurden inkubiert bis eine konfluente Zellkultur entstanden war; anschließend wurde das Kulturmedium durch "Standard Bath Solution" (SBS; 130 mM NaCl, 3 mM KCl; 2 mM CaCl2; 2 mM MgCl2; 25 mM HEPES/NaHEPES; 10 mM D-Glukose; pH 7,4) ersetzt und die Schalen an einem inversen Mikroskop (Axiovert, Zeiss) untersucht. Die "Patch"-Pipetten wurden aus Borosilikatröhrchen an einer horizontalen Ausziehvorrichtung (DMZ, Zeitz) nach dem zweistufigen Ausziehverfahren hergestellt. Die Pipetten wurden anschließend mit einer Lösung, die 135 mM Kaliumglukonat, 10 mM KCl, 1,6 mM Na2HPO4, 0,73 mM CaCl2, 1,03 mM MgCl2, 1 mM EGTA, 14 mM HEPES/NaHEPES und […] Nystatin; pH 7,2 enthielt, gefüllt (Ca^2+-Aktivität in der Lösung= 10^-7 M). Der Widerstand dieser "Patch"-Pipetten betrug […] im Bad. Nachdem eine Versiegelung im GΩ-Bereich hergestellt wurde (typischerweise 1,5-2 GΩ) wurde der Verstärker auf Strom-Klemm Modus umgestellt. […] Die elektrophysiologischen Signale wurden mittels eines Axopatch 200 Verstärkers in Verbindung mit einem TL-1 Labmaster Interface und AXOTAPE Software (Axon Instruments) aufgenommen, verstärkt und digitalisiert. Die statistische Auswertung (ein-Weg ANOVA mit Bonferri post-test Vergleich) wurde mit Graphpad prism 2.0 durchgeführt.
Bei Experimenten, bei denen die intrazelluläre Ca^2+-Konzentration durch Blitzphotolyse von "caged IP3" (Calbiochem) erhöht wurde, wurde das "Patch-Clamp Recording" in der Ganzzell-Konfiguration durchgeführt, wobei eine Pipettenlösung enthaltend 120 mM Kaliumglukonat, 20 mM KCl, 1 mM MgCl2, 10 mM HEPES/NaHEPES, 2 mM Na2ATP, 0,3 mM NaGTP (pH 7,2) und 10-100 µM "caged IP3" verwendet wurde. Nach 5-7 min Ganzzell-Aufzeichnung wurde IP3 durch einen UV-Lichtblitz freigesetzt, der durch eine Xenon-Bogen-Lampe (75 W; Anregungsfilter: 330 ± 40 nm), die mit dem Epifluoreszenzport des Mikroskops verbunden war, generiert wurde. Der UV-Lichtstrahl wurde durch das 40-fach Phasenkontrastobjektiv auf die Keratinozyten fokussiert. Die Dauer des Blitzes (1 s) wurde durch einen Uniblitz "Shutter" (Vincent Assoc.) eingestellt.
Bei Experimenten, bei denen die gesamte Lösung, in der die Zellen inkubiert wurden ausgewechselt wurde, wurde ein konischer Plexiglaseinsatz mit mehrfachen Einflußleitungen und einer Ausflußleitung in die Kulturschale eingesetzt, um das Volumen der Ableitkammer auf 1 ml zu reduzieren. Der Zufluß von Flüssigkeit war Schwerkraft-abhängig und wurde durch magnetische Ventile kontrolliert. Der Ausfluß wurde durch das Anlegen eines negativen Drucks mittels einer Vakuumpumpe bewirkt. Die Zugabe von Substanzen erfolgte unter visueller Beobachtung direkt auf die zu untersuchenden Keratinozyten mittels eines ferngesteuerten, magnetgesteuerten Y-Rohrsystem (Durchmesser des Ausflußröhrchens: 100 µm).
Die elektrophysiologischen Ableitungen mittels perforierten "Patches" wurden an HaCaT-Zellen durchgeführt, die zu einem konfluenten Monolayer gewachsen waren.

[2] = tested on: HaCaT-Zellen; assay: Anti-K10 immunostaining of HaCaT cells (differentiation); conditions: 1 mM 1-EBIO, 3 days, compared with control cells without 1-EBIO
Description: Dazu wurden proliferierende subkonfluente Zellen, Zellen, die gerade Konfluenz erreicht hatten, und ruhende Zellen (4 Tage nach Konfluenz) untersucht. Die Aktivität dieser Keratinozyten wurde anhand der differenzierungsspezifischen Keratin-10-Expression bestimmt. Dazu wurden die Zellen in eiskaltem PBS gewaschen und mit Aceton/Methanol (1:1) 20 min bei -20°C fixiert. Endogene Peroxidasen wurden mit 1 % H2O2 bei Raumtemperatur blockiert. Nachdem die unspezifischen Bindungsstellen mit 3% BSA in PBS abgesättigt worden waren, wurden die Zellen über Nacht in einer 1:500 Verdünnung des Maus-anti-K10 Antikörpers (DAKO) in 3% BSA in PBS bei 4°C inkubiert und anschließend drei Mal mit PBS und einmal mit 3% BSA in PBS gewaschen. Nach 2 h Inkubation mit einem Peroxidase-gekoppelten anti-Maus Antikörper bei Raumtemperatur wurden die Zellen dreimal mit PBS und einmal mit ddH2O gewaschen. Anschließend wurden die Zellen mit dem Peroxidase Substrat-Kit und 3-Amino-9-ethylcarbazol als chromogenes Substrat (Vector Laboratories) gefärbt. Während die proliferierenden Zellen und die Zellen, die gerade Konfluenz erreicht hatten, keine Färbung aufwiesen, zeigte es sich, daß ein Großteil der postkonfluenten Zellen gefärbt war (Figur 3). […]

[3] = tested on: HaCaT Zellen; assay: BrDU incorporation cell proliferation ELISA (A[450 nm])
Text: Dabei wurde zunächst der Einfluss verschiedener Konzentrationen von 1-EBIO auf die Wachstumsrate von HaCaT Zellen in An- und Abwesenheit von Serum gemessen. Zu diesem Zweck wurden 1x10^4 HaCaT Zellen pro "Well" in einer 96-"Well" Platte 5 Tage lang in Keratinozytenwachstumsmedium (KGM) kultiviert, um den Zellzyklus zu synchronisieren, gefolgt von einer zweitägigen Inkubation verschiedener Konzentrationen an 1-EBIO in KGM (siehe Figuren 7 und 8) in Abwesenheit (Figur 7) und in Anwesenheit (Figur 8) von Serum. […] Als Lösungmittelkontrolle diente 1% DMSO in KGM. Die Zellproliferation wurde mit Hilfe des Einbaus von […] (BrDU) während der Zellteilung gemäß den Angaben des Herstellers gemessen ("The Cell Proliferation ELISA, BrDU, Roche). Der Einbau von BrDU wurde dabei durch die Bestimmung der Absorption bei 450 nm quantifiziert. In Figur 7 und 8 ist jeweils die Absorption (A[450nm]) als Maß für die Proliferationsrate auf der Y-Achse aufgetragen. Eine höhere Absorption spiegelt eine stärkere Proliferation wieder.

[4] = tested on: HaCaT-Keratinozyten; assay: Proliferation by daily count of cells per well; conditions: subconfluent cells, n=3
Description: Um den Effekt der Inhibitoren des hIK1 Kanals, Clotrimazol und Charybdotoxin, zu untersuchen, wurde zu subkonfluent gewachsenen Zellen entweder 10 µM Clotrimazol, 200 nM Charybdotoxin (ChTx) oder 1 mM 1-EBIO zugegeben und jeden Tag die Anzahl Zellen pro well bestimmt.
Wie aus Figur 5 (n=3) ersichtlich ist, inhibierte die Zugabe sowohl eines der beiden Inhibitoren als auch die Zugabe des Aktivators von hIK1 die Proliferation, während das Wachstum der Kontrollzellen, denen keine Modulatoren zugesetzt worden waren, unbeeinträchtigt blieb.

[5] = tested on: HaCaT Zellen; assay: Immunoblot of keratinocyte differentiation markers Involucrin, Keratin 1 and Keratin 10; conditions: 1, 100, 1000 µM; 4 days; control 1% DMSO
Description: Dazu wurden in einer 6-"Well"- Platte 5x10^5 HaCaT Zellen pro "Well" in Medium angezogen. Am nächsten Tag wurde das Medium gewechselt auf Medium, das verschiedene Konzentrationen an 1-EBIO bzw. […] Als Lösungsmittelkontrolle wurde 1% DMSO (Spur "C") in Medium benutzt. Die Zellen wurden 4 Tage lang inkubiert, wobei das Medium täglich ersetzt wurde. Nach 4 Tagen wurden die Proteinkonzentration in den Zelllysaten bestimmt (BCA Assay, Pierce). Gleiche Proteinmengen aus den verschiedenen Lysaten wurden anschliessend mittels Immunoblot gegen die Keratinozytendifferenzierungsmarker Involucrin (1:500, Sigma) sowie Keratin 1 und 10 (1:250, Progen) verglichen (Figur 6).

Compound: Calphostin C
- Einfluß auf die ATP-vermittelte Spannungsänderung ([1]; Calphostin C 50 nM): beeinflußte jedoch ebenfalls nicht die ATP-vermittelte Spannungsänderung
- Membranpotential (schwache Hyperpolarisierung auf) ([1]; Calphostin C 50 nM): -58 ± 3 mV

Compound: Nc1ncnc2c1ncn2[C@@H]1O[C@H](COP(=O)(O)OP(=O)(O)OP(=O)(O)O)[C@@H](O)[C@H]1O [ATP]
- Reversibilität der Hyperpolarisierung ([1]; 1 µM ATP, n=9): durch Auswaschen der Lösung rasch reversiblen Prozeß
- Änderung des Membranpotentials ([1]; ATP 1-1000 µM perfusion, perforated patch, current clamp, confluent monolayer): biphasische Änderung des Membranpotentials, die aus einer kurzen, transienten Depolarisierung gefolgt von einer deutlichen und langanhaltenden Hyperpolarisierung bestand
- Dauer der Hyperpolarisierung nach ATP-Zugabe ([1]; ATP ≥ 10 µM, added for 5 min): ≥ 5 min

Compound: O=P(O)(O)O[C@@H]1[C@H](O)[C@H](O)[C@@H](OP(=O)(O)O)[C@H](OP(=O)(O)O)[C@H]1O [IP3]
- Spannungsänderung nach Freisetzung von IP3 ([1]; whole-cell, caged-IP3 10-100 µM, UV flash photolysis, n=7): schnellen, transienten Depolarisierung, gefolgt von einer Hyperpolarisierung

Compound: CC[N+](CC)(CC)CC [TEA]
- Depolarisierung auf ein Plateau während der Behandlung mit ATP [1]: Keiner der anderen getesteten K^+-Kanalblocker (TEA, Ba^2+, und Verapamil) führten zu einer vergleichbaren Depolarisierung auf ein Plateau

Compound: Bradykinin (RPPGFSPFR; Bradykinin; UniProt P01042 381-389, looked up)
- elektrophysiologische Antwort im Vergleich zu ATP ([1]; Bradykinin 10 µM, n=3): quantitativ und kinetisch praktisch identische Antwort

Compound: [Ba+2] [Ba^2+]
- Depolarisierung auf ein Plateau während der Behandlung mit ATP [1]: Keiner der anderen getesteten K^+-Kanalblocker (TEA, Ba^2+, und Verapamil) führten zu einer vergleichbaren Depolarisierung auf ein Plateau

Compound: CCCCCCCCCCCCCC(=O)O[C@@H]1[C@@H](C)[C@@]2(O)[C@@H](C=C(CO)C[C@]3(O)C(=O)C(C)=C[C@@H]23)[C@@H]2C(C)(C)[C@]12OC(C)=O [PMA]
- Membranpotential (langsame Depolarisierung auf) [1]: -32 ± 2 mV
- Einfluß auf den Effekt von ATP ([1]; PMA 60 ng/µl, n=4): beeinflußte jedoch nicht den Effekt von ATP

Compound: NCCc1c[nH]cn1 [Histamin]
- elektrophysiologische Antwort im Vergleich zu ATP ([1]; Histamin 100 µM, n=4): quantitativ und kinetisch praktisch identische Antwort

Compound: CCn1c(=O)[nH]c2ccccc21 [1-EBIO, 1-Ethyl-2-benzimidazolinon]
- transiente Depolarisierung nach ATP ([1]; ATP 10 µM in the presence of 1-EBIO 1 mM): viel stärker war als unter Kontrollbedingungen
- Anteil an K10-gefärbten Zellen (Differenzierung) [2]: signifikant reduzierten Anteil an gefärbten Zellen
- Dosisabhängigkeit der Inhibition der seruminduzierten Proliferation ([3]; 1-EBIO, various concentrations, with serum): dosisabhängig ist und den stärksten Effekt bei einer Konzentration von 1 mM zeigt
- Zellproliferation ohne Serum ([3]; KGM without serum, 2 days, 1-EBIO various concentrations, Zoxazolamin 1 mM): alleine nicht in der Lage sind, die Zellproliferation zu stimulieren
- Apoptose / Morphologie der Zellen ([3]; cells treated with the activators): keine Anzeichen von Apoptose
- seruminduzierte Proliferation ([3]; with 10% FCS, 2 days, 1-EBIO various concentrations, Zoxazolamin 1 mM): in der Lage die seruminduzierte Proliferation zu inhibieren
- Proliferation (Anzahl Zellen pro well) ([4]; 1-EBIO 1 mM): inhibierten die Proliferation vollständig; also recorded: vollständigen Inhibition
- Differenzierung (Involucrin, K1, K10) [5]: dosisabhängig inhibieren

Compound: Charybdotoxin
- Einfluß auf die bestehende ATP-vermittelte Hyperpolarisierung ([1]; ChTx 100 nM added after ATP, ATP still present, n=2): vollständige Umkehrung der Hyperpolarisierung
- Einfluß auf die Repolarisierung unter ATP ([1]; ChTx 100 nM before ATP, n=4): verhinderte ChTx die Repolarisierung vollständig
- Einfluß auf die ATP-vermittelte Hyperpolarisierung ([1]; ChTx 10-100 nM before ATP, n=15): verhinderte eine Hyperpolarisierung
- Inhibition der ATP-vermittelten Hyperpolarisierung ([1]; various concentrations, added before ATP): dosisabhängige Inhibition der ATP-vermittelten Hyperpolarisierung
- Proliferation (Anzahl Zellen pro well) ([4]; Charybdotoxin 200 nM): die Proliferation verlangsamte; also recorded: nur verlangsamtes Wachstum

Compound: CCn1c(=O)[nH]c2cc(Cl)c(Cl)cc21 [DCEBIO, 5,6-dichloro-1-ethyl-1,3-dihydro-2H-benzimidazol-2-on]
- Stärke der Depolarisation relativ zu 1-EBIO ([1]; HaCaT Zellen, relative to 1-EBIO): 300-1000 fach

Compound: Clc1ccccc1C(c1ccccc1)(c1ccccc1)n1ccnc1 [Clotrimazol]
- Einfluß auf die Repolarisierung unter ATP [1]: Derselbe Effekt
- Proliferation (Anzahl Zellen pro well) ([4]; Clotrimazol 10 µM): inhibierten die Proliferation vollständig; also recorded: vollständigen Inhibition
